# Results reported in PubChem BioAssay (NCI).
#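 Where inhibition never reached the appropriate level, the endpoint shown equals the highest concentration tested. Otherwise, values were interpolated linearly from a five-concentration, 48-hour dose response in 96-well plates. GI50: concentration for 50% inhibition of growth. TGI: total growth inhibition.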
# Assays:
# Assay in all cases: DTP human tumour cell line panel, 48 h
# HCT-15 colon = system: HCT-15 colon
# UACC-257 melanoma = system: UACC-257 melanoma
# SF-295 CNS = system: SF-295 CNS
# SW-620 colon = system: SW-620 colon
# M14 melanoma = system: M14 melanoma
# NCI-H460 lung = system: NCI-H460 lung
# CCRF-CEM leukemia = system: CCRF-CEM leukemia
# CAKI-1 renal = system: CAKI-1 renal
# HOP-92 NSCLC = system: HOP-92 NSCLC
# DU-145 prostate = system: DU-145 prostate
# NCI-H522 lung = system: NCI-H522 lung
# SF-268 CNS = system: SF-268 CNS
# A549 NSCLC = system: A549 NSCLC
# OVCAR-8 ovarian = system: OVCAR-8 ovarian
# 786-0 renal = system: 786-0 renal
# RXF 393 renal = system: RXF 393 renal
# HCC-2998 colon = system: HCC-2998 colon
# OVCAR-5 ovarian = system: OVCAR-5 ovarian
# HL-60(TB) leukemia = system: HL-60(TB) leukemia
# SF-539 CNS = system: SF-539 CNS
# MOLT-4 leukemia = system: MOLT-4 leukemia
# SNB-19 CNS = system: SNB-19 CNS
# EKVX NSCLC = system: EKVX NSCLC
# MDA-MB-231 breast = system: MDA-MB-231 breast
# OVCAR-4 ovarian = system: OVCAR-4 ovarian
# MDA-MB-435 = system: MDA-MB-435
# SK-OV-3 ovarian = system: SK-OV-3 ovarian
# MALME-3M melanoma = system: MALME-3M melanoma
# U251 CNS = system: U251 CNS
# SR leukemia = system: SR leukemia
# NCI-H226 lung = system: NCI-H226 lung
# A498 renal = system: A498 renal
# NCI-H23 lung = system: NCI-H23 lung
# SK-MEL-2 melanoma = system: SK-MEL-2 melanoma
# PC-3 prostate = system: PC-3 prostate
# ACHN renal = system: ACHN renal
# UO-31 renal = system: UO-31 renal
# HS 578T breast = system: HS 578T breast
# TK-10 renal = system: TK-10 renal
# HT29 colon = system: HT29 colon
# SN12C renal = system: SN12C renal
# IGROV1 ovarian = system: IGROV1 ovarian
# BT-549 breast = system: BT-549 breast
# KM12 colon = system: KM12 colon
# RPMI-8226 leukemia = system: RPMI-8226 leukemia
# SNB-75 CNS = system: SNB-75 CNS
# HCT-116 colon = system: HCT-116 colon
# HOP-62 NSCLC = system: HOP-62 NSCLC
# NCI/ADR-RES ovarian = system: NCI/ADR-RES ovarian
# SK-MEL-28 melanoma = system: SK-MEL-28 melanoma
# LOX IMVI melanoma = system: LOX IMVI melanoma
# T-47D breast = system: T-47D breast
# SK-MEL-5 melanoma = system: SK-MEL-5 melanoma
# UACC-62 melanoma = system: UACC-62 melanoma
# COLO 205 colon = system: COLO 205 colon
# K-562 leukemia = system: K-562 leukemia
smiles,measurement,setting,value
CCOc1ccccc1NC1=C(Cl)C(=O)c2nc(C)ccc2C1=O,GI50,HCT-15 colon,1130 nM
same,TGI,HCT-15 colon,2550 nM
same,GI50,UACC-257 melanoma,1280 nM
same,TGI,UACC-257 melanoma,2610 nM
same,GI50,SF-295 CNS,2030 nM
same,TGI,SF-295 CNS,4200 nM
same,GI50,SW-620 colon,1600 nM
same,TGI,SW-620 colon,3210 nM
same,GI50,M14 melanoma,1460 nM
same,TGI,M14 melanoma,2830 nM
same,GI50,NCI-H460 lung,3020 nM
same,TGI,NCI-H460 lung,11400 nM
same,GI50,CCRF-CEM leukemia,1410 nM
same,TGI,CCRF-CEM leukemia,> 100000 nM
same,GI50,CAKI-1 renal,1450 nM
same,TGI,CAKI-1 renal,2840 nM
same,GI50,HOP-92 NSCLC,1800 nM
same,TGI,HOP-92 NSCLC,3330 nM
same,GI50,DU-145 prostate,1630 nM
same,TGI,DU-145 prostate,2990 nM
same,GI50,NCI-H522 lung,1740 nM
same,TGI,NCI-H522 lung,3280 nM
same,GI50,SF-268 CNS,1470 nM
same,TGI,SF-268 CNS,2940 nM
same,GI50,A549 NSCLC,2060 nM
same,TGI,A549 NSCLC,4650 nM
same,GI50,OVCAR-8 ovarian,1490 nM
same,TGI,OVCAR-8 ovarian,2920 nM
same,GI50,786-0 renal,1800 nM
same,TGI,786-0 renal,3250 nM
same,GI50,RXF 393 renal,1440 nM
same,TGI,RXF 393 renal,2780 nM
same,GI50,HCC-2998 colon,1940 nM
same,TGI,HCC-2998 colon,3520 nM
same,GI50,OVCAR-5 ovarian,1840 nM
same,TGI,OVCAR-5 ovarian,3330 nM
same,GI50,HL-60(TB) leukemia,1030 nM
same,TGI,HL-60(TB) leukemia,2920 nM
same,GI50,SF-539 CNS,1670 nM
same,TGI,SF-539 CNS,3090 nM
same,GI50,MOLT-4 leukemia,2030 nM
same,TGI,MOLT-4 leukemia,8090 nM
same,GI50,SNB-19 CNS,1800 nM
same,TGI,SNB-19 CNS,3970 nM
same,GI50,EKVX NSCLC,1560 nM
same,TGI,EKVX NSCLC,2980 nM
same,GI50,MDA-MB-231 breast,1070 nM
same,TGI,MDA-MB-231 breast,2380 nM
same,GI50,OVCAR-4 ovarian,1000 nM
same,TGI,OVCAR-4 ovarian,2220 nM
same,GI50,MDA-MB-435,266 nM
same,TGI,MDA-MB-435,671 nM
same,GI50,SK-OV-3 ovarian,13500 nM
same,TGI,SK-OV-3 ovarian,27100 nM
same,GI50,MALME-3M melanoma,1360 nM
same,TGI,MALME-3M melanoma,2770 nM
same,GI50,U251 CNS,1700 nM
same,TGI,U251 CNS,3270 nM
same,GI50,SR leukemia,543 nM
same,TGI,SR leukemia,4140 nM
same,GI50,NCI-H226 lung,1780 nM
same,TGI,NCI-H226 lung,4240 nM
same,GI50,A498 renal,2650 nM
same,TGI,A498 renal,10800 nM
same,GI50,NCI-H23 lung,1440 nM
same,TGI,NCI-H23 lung,3550 nM
same,GI50,SK-MEL-2 melanoma,1440 nM
same,TGI,SK-MEL-2 melanoma,2860 nM
same,GI50,PC-3 prostate,1260 nM
same,TGI,PC-3 prostate,2770 nM
same,GI50,ACHN renal,1350 nM
same,TGI,ACHN renal,2690 nM
same,GI50,UO-31 renal,1400 nM
same,TGI,UO-31 renal,2710 nM
same,GI50,HS 578T breast,2110 nM
same,TGI,HS 578T breast,5250 nM
same,GI50,TK-10 renal,2250 nM
same,TGI,TK-10 renal,3720 nM
same,GI50,HT29 colon,3400 nM
same,TGI,HT29 colon,15200 nM
same,GI50,SN12C renal,1590 nM
same,TGI,SN12C renal,3040 nM
same,GI50,IGROV1 ovarian,1370 nM
same,TGI,IGROV1 ovarian,2820 nM
same,GI50,BT-549 breast,1520 nM
same,TGI,BT-549 breast,2880 nM
same,GI50,KM12 colon,1410 nM
same,TGI,KM12 colon,2890 nM
same,GI50,RPMI-8226 leukemia,1200 nM
same,TGI,RPMI-8226 leukemia,4710 nM
same,GI50,SNB-75 CNS,1630 nM
same,TGI,SNB-75 CNS,3430 nM
same,GI50,HCT-116 colon,1050 nM
same,TGI,HCT-116 colon,2310 nM
same,GI50,HOP-62 NSCLC,2270 nM
same,TGI,HOP-62 NSCLC,6740 nM
same,GI50,NCI/ADR-RES ovarian,1890 nM
same,TGI,NCI/ADR-RES ovarian,5090 nM
same,GI50,SK-MEL-28 melanoma,1710 nM
same,TGI,SK-MEL-28 melanoma,3140 nM
same,GI50,LOX IMVI melanoma,839 nM
same,TGI,LOX IMVI melanoma,2220 nM
same,GI50,T-47D breast,467 nM
same,TGI,T-47D breast,3170 nM
same,GI50,SK-MEL-5 melanoma,1740 nM
same,TGI,SK-MEL-5 melanoma,3130 nM
same,GI50,UACC-62 melanoma,1800 nM
same,TGI,UACC-62 melanoma,3360 nM
same,GI50,COLO 205 colon,1730 nM
same,TGI,COLO 205 colon,3660 nM
Nc1cc(-c2c[nH]c3ccc(Br)cc23)nc2cc(-c3c[nH]c4ccc(Br)cc34)nn12,GI50,HCT-15 colon,1360 nM
same,TGI,HCT-15 colon,3180 nM
same,GI50,UACC-257 melanoma,1630 nM
same,TGI,UACC-257 melanoma,3200 nM
same,GI50,SF-295 CNS,1890 nM
same,TGI,SF-295 CNS,3570 nM
same,GI50,CCRF-CEM leukemia,3210 nM
same,TGI,CCRF-CEM leukemia,> 100000 nM
same,GI50,CAKI-1 renal,1430 nM
same,TGI,CAKI-1 renal,3150 nM
same,GI50,DU-145 prostate,1720 nM
same,TGI,DU-145 prostate,3230 nM
same,GI50,RXF 393 renal,1830 nM
same,TGI,RXF 393 renal,3540 nM
same,GI50,HCC-2998 colon,1800 nM
same,TGI,HCC-2998 colon,3340 nM
same,GI50,OVCAR-5 ovarian,1530 nM
same,TGI,OVCAR-5 ovarian,3110 nM
same,GI50,SF-539 CNS,1460 nM
same,TGI,SF-539 CNS,2920 nM
same,GI50,MDA-MB-231 breast,1890 nM
same,TGI,MDA-MB-231 breast,3790 nM
same,GI50,K-562 leukemia,2810 nM
same,TGI,K-562 leukemia,> 100000 nM
same,GI50,OVCAR-4 ovarian,2030 nM
same,TGI,OVCAR-4 ovarian,5250 nM
same,GI50,MDA-MB-435,1710 nM
same,TGI,MDA-MB-435,3250 nM
same,GI50,SK-OV-3 ovarian,1710 nM
same,TGI,SK-OV-3 ovarian,3440 nM
same,GI50,MALME-3M melanoma,1930 nM
same,TGI,MALME-3M melanoma,4080 nM
same,GI50,NCI-H226 lung,2140 nM
same,TGI,NCI-H226 lung,6110 nM
same,GI50,A498 renal,1570 nM
same,TGI,A498 renal,4070 nM
same,GI50,SK-MEL-2 melanoma,1670 nM
same,TGI,SK-MEL-2 melanoma,3270 nM
same,GI50,ACHN renal,1560 nM
same,TGI,ACHN renal,2960 nM
same,GI50,UO-31 renal,1470 nM
same,TGI,UO-31 renal,2790 nM
same,GI50,HS 578T breast,2300 nM
same,TGI,HS 578T breast,7540 nM
same,GI50,TK-10 renal,1800 nM
same,TGI,TK-10 renal,3390 nM
same,GI50,HT29 colon,1710 nM
same,TGI,HT29 colon,3150 nM
same,GI50,SN12C renal,1840 nM
same,TGI,SN12C renal,3640 nM
same,GI50,KM12 colon,1480 nM
same,TGI,KM12 colon,2960 nM
same,GI50,RPMI-8226 leukemia,3170 nM
same,TGI,RPMI-8226 leukemia,> 100000 nM
same,GI50,SNB-75 CNS,1170 nM
same,TGI,SNB-75 CNS,3770 nM
same,GI50,NCI/ADR-RES ovarian,2500 nM
same,TGI,NCI/ADR-RES ovarian,6140 nM
same,GI50,SK-MEL-28 melanoma,1620 nM
same,TGI,SK-MEL-28 melanoma,3080 nM
same,GI50,SK-MEL-5 melanoma,1700 nM
same,TGI,SK-MEL-5 melanoma,3180 nM
same,GI50,UACC-62 melanoma,1480 nM
same,TGI,UACC-62 melanoma,3050 nM
same,GI50,COLO 205 colon,1760 nM
same,TGI,COLO 205 colon,3230 nM
